{"source": "patent US8080688B2", "about": "“3, 4-disubstituted phenoxyphenylamidines and use thereof as fungicides” (Bayer Cropscience AG, priority 2007, dated 2011)", "experiment": "logP", "assay_type": "physicochemical", "note": "Like-named read-outs stand apart in the source and are kept apart here.", "data": [{"smiles": "CCN(C)C=Nc1cc(C)c(Oc2ccc3c(c2)CCCC3)cc1C", "note": "[Compound 13, N-Ethyl-N-methyl-N′-[4-(5,6,7,8-tetrahydro-2-naphthoxy)-2,5-dimethylphenyl]formamidine]", "values": [{"measurement": "logP", "setting": "acidic, read-out: logP acidic", "result": 2.69}, {"measurement": "logP", "setting": "neutral, read-out: logP neutr.", "result": 6.31}, {"measurement": "logP", "setting": "pH 2.3, pH 2.3, read-out: log P (pH2.3)", "result": 2.14}]}]}
